Source: ChEMBL document CHEMBL1127334, “Discovery of new non-phospholipid inhibitors of the secretory phospholipases A2” (J Med Chem, 1994)

The compounds below were run against T1, Phospholipase A2, membrane associated (Homo sapiens, UniProt P14555) (assay: Compound was tested for in vitro activity against S-phospholipase A2 (s-PLA2) isolated from human platelets).
T1 sequence (P14555 whole entry): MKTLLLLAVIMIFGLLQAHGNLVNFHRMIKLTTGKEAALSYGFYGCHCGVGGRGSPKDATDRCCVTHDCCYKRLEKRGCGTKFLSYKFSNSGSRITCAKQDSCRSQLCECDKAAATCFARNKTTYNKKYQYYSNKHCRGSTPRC

Row | IC50 [nM] | Compound
1 | 65 | O=C(O)C[C@@H](CSc1ccc(Cc2ccccc2)cc1)NC(=O)CCCCCCc1ccccc1
2 | 1850 | CCCCCC/C=C/CC(=O)N[C@@H](CCC(=O)O)CSc1ccc2ccccc2c1
3 | 12000 | CCCCCC/C=C/CC(=O)N[C@H](CCC(=O)O)CSc1ccc2ccccc2c1
4 | 3800 | CCCCCC/C=C/CC(=O)N[C@H](CSc1ccc(Cc2ccccc2)cc1)CC(=O)O
